Reference: patent US5670538A, “Use of prodelphinidins for obtaining medicaments intended for the treatment of arthrosis” (Laboratoires Dolisos, priority 1992, dated 1997)
Read-outs that look alike come from different tables or passages of the source.

Columns and labels:
[1] = test system: polymorphonuclear cells (PMNs); assay: Production of the superoxide anion by the polymorphonuclear cells (PMNs), reduction of ferricytochrome C; assay type: cell-based; settings: 0.032 mM; phorbol myristate acetate; no conclusion possible on superoxide inhibition
Description: 10. Production of the superoxide anion (O°^2) by the polymorphonuclear cells (PMNs).
This is measured with a double beam spectrophotometer which allows the reduction of ferricytochrome C by O°2 tc be monitored. The incubation medium (2.5 ml) is constituted by PBS buffer containing glucose (7.5 mM), ferricytochrome C (0.956 mM), CaCl2 (2.3 mM), MgCl2 (1.1 mM), 7.5.10^6 of cells and the substance to be tested at a concentration of 0.032 mM. The reaction is triggered by adding phorbol myristate acetate at a final concentration of 0.012 mM and the reduction of the cytochrome C is monitored at 550 nm for 10 minutes. The reference cell contains the same material as that described above with an additional 48 μg of superoxide dismutase (SOD)/ml of medium.

[2] = test system: human articular chondrocytes; assay: Radioimmunoassay of cartilaginous proteoglycans (PG) produced in tridimensional culture of human chondrocytes; assay type: cell-based; settings: for PG in the clusters over 12 days: 0-12 days
Description: The model used for testing the proanthocyanidols, namely the tridimensional culture of human chondrocytes allows chondrorepair to be quantified by the production of matrix substances: type II collagen, proteoglycans, and chondroresorption by the reduction in the levels of prostaglandin E2 and of OH° and O°2 type free radicals produced.
1. Tridimensional culture of human chondrocytes
The technique used has been described in detail (Bassleer et al., 1986).
Briefly, human articular chondrocytes are cultivated in DMEM (Dulbecco's Modification of Eagle's Medium--ICN--Gand, Belgium) with either Ultroser G 1% (GIBCO, Gand, Belgium) or 10% of foetal calf serum (ICN--Gand--Belgium), and 50 μg of ascorbic acid/ml added to it. The cartilage originates from the apparently normal zone of heads of human femur suffering from arthrosis, immediately after an operation carried out to insert a total hip prosthesis; it can also originate from the head of a healthy femur, but which has undergone a traumatism and has had to be replaced. This cartilage is then digested by clostridial collagenase 1 mg/ml (Boehringer-Mannheim, Germany) in a buffer (NaCl 120 mM, CaCl2 1 mM, KCl 5 mM, KH2 PO4 1 mM, NaHCO3 25 mM, glucose 2 mM and Hepes 30 mM, pH 7.4) for 24 hours. After 6 successive washings and centrifugations, the chondrocytes, isolated from their matrix, are cultured in flasks (10^6 cells/2 ml of culture medium) placed on a gyrator (10 rpm). The cultures are kept at 37° C. in an atmosphere of air 95%-CO2 5% (Bassleer et al., 1986). Cultivated under these conditions, after 4 to 5 days the chondrocytes form a tridimensional cluster in each flask. These clusters, which at first have a flocculent appearance, then tend to condense during the culture. After two weeks, their diameter is, in general, from 1 to 2 mm.
The fresh weight of the clusters increases with the duration of the culture, above all during the few first days.
2. Radioimmunoassay of cartilaginous proteoglycans (PG)
The PGs are measured with a radioimmunoassay (RIA) which is specific and sensitive to human cartilaginous PGs (Gysen et al. 1984). The PGs were extracted from human cartilage, according to the methods described by Roughley et al., (1981) and by Bayliss and Venn (1980). The antiserum against the cartilaginous PGs was obtained from the rabbit according to the technique of Vaitukaitis et al. (1971). The radioimmunoassay is carried out in a 0.4 ml volume consisting of 0.1 ml of tracer solution (15000 to 20000 cpm ^125 I-PG, labelled by the chloramine T method (Greenwood, 1973). 0.1 ml of anti-PG antiserum diluted to 1/5000 in phosphate-buffered saline (PBS-50 mM PO4, 150 mM NaCl ), containing BSA (5 g/l bovine serum albumin and 6.7 mM sodium azide) (incubation buffer) and 0.2 ml of several dilutions of the culture medium or of the cluster extract or also of the antigen (0.5 -500 ng/tube).
After four days at 4° C., the free PGs* (radioactive PGs) are separated from the PG*-antibody complexes by double precipitation (Franchimont et al., 1983).
The sensitivity of the assay is 0.6 ng/tube. The accuracy of measurement is of the order of 4%. The coefficients of the intra- and inter assay variation are less than 10% and 20% respectively.
The antibodies are directed against the antigenic determinants of the central protein of PG. There is a complete crossed reaction with human PGs of cartilage from the ribs, vertebral disks and trachea, even with PGs extracted from veins or arteries. There is no cross reaction with glycosaminoglycans or with PGs extracted from foetal tissues or the small PGs from bone.
The PGs are measured directly in the culture medium. As for the chondrocyte clusters, they are washed 3 times in a phosphate-buffered saline (PBS-50 mM PO4, 150 mM NaCl pH 7.4) containing protease inhibitors (Oegema et al., 1975:100 mM 6-aminohexanoic acid, 10 mM EDTA, 50 mM benzamidine hydrochloride, 5.10^-8 M trypsin inhibitor, 6.7 mM sodium azide and 200 U/ml superoxide dismutase). […]

## Oc1cc(O)c2c(c1)O[C@H](c1cc(O)c(O)c(O)c1)[C@@H](O)[C@@H]2c1c(O)cc(O)c2c1O[C@H](c1cc(O)c(O)c(O)c1)[C@H](O)C2 [Substance Ia, GC-(4 alpha→8) EGC]
[1]
  Reduction of ferricytochrome C by PMNs: strongly reduced
[2]; 1% Ultroser G, 1 μg/ml
  PG in the clusters over 12 days: 912 ± 83.6 ng/μg DNA
[2]; 1% Ultroser G, 10 μg/ml
  PG in the clusters over 12 days: 1411 ± 153 ng/μg DNA
[2]; 1% Ultroser G, 100 μg/ml
  PG in the clusters over 12 days: 2105 ± 42 ng/μg DNA
[2]; 1% Ultroser G, culture time 0-4 days, 1 μg/ml
  PGs released in the culture medium: 14.2 ± 1.6 μg/μg DNA/96 h
[2]; 1% Ultroser G, culture time 0-4 days, 10 μg/ml
  PGs released in the culture medium: 22.4 ± 0.2 μg/μg DNA/96 h
[2]; 1% Ultroser G, culture time 0-4 days, 100 μg/ml
  PGs released in the culture medium: 28.6 ± 2.85 μg/μg DNA/96 h
[2]; 1% Ultroser G, culture time 4-8 days, 1 μg/ml
  PGs released in the culture medium: 1.74 ± 0.18 μg/μg DNA/96 h
[2]; 1% Ultroser G, culture time 4-8 days, 10 μg/ml
  PGs released in the culture medium: 3.26 ± 0.12 μg/μg DNA/96 h
[2]; 1% Ultroser G, culture time 4-8 days, 100 μg/ml
  PGs released in the culture medium: 3.94 ± 0.1 μg/μg DNA/96 h
[2]; 1% Ultroser G, culture time 8-12 days, 1 μg/ml
  PGs released in the culture medium: 0.44 ± 0.04 μg/μg DNA/96 h
[2]; 1% Ultroser G, culture time 8-12 days, 10 μg/ml
  PGs released in the culture medium: 0.74 ± 0.18 μg/μg DNA/96 h
[2]; 1% Ultroser G, culture time 8-12 days, 100 μg/ml
  PGs released in the culture medium: 0.78 ± 0.02 μg/μg DNA/96 h
[2]; 1% Ultroser G, cumulative, 1 μg/ml
  Proteoglycans released during the 12 days of culture, Abs: 16.4 μg/μg DNA/12 days
[2]; 1% Ultroser G, cumulative, 10 μg/ml
  Proteoglycans released during the 12 days of culture, Abs: 26.4 μg/μg DNA/12 days
[2]; 1% Ultroser G, cumulative, 100 μg/ml
  Proteoglycans released during the 12 days of culture, Abs: 33.3 μg/μg DNA/12 days
[2]; 1% Ultroser G, three concentrations studied
  Concentrations of PG in the clusters, effect in words: significantly stimulated and in a dose-dependent way
[2]; Homo sapiens, Chondrocyte, 288 h, 1% Ultroser G, cumulative, 1 μg/ml, control = 100, read-out: Proteoglycans released during the 12 days of culture, %
  activity at 1 µg/mL: 103%
[2]; Homo sapiens, Chondrocyte, 288 h, 1% Ultroser G, cumulative, 10 μg/ml, control = 100, read-out: Proteoglycans released during the 12 days of culture, %
  activity at 10 µg/mL: 165%
[2]; Homo sapiens, Chondrocyte, 288 h, 1% Ultroser G, cumulative, 100 μg/ml, control = 100, read-out: Proteoglycans released during the 12 days of culture, %
  activity at 100 µg/mL: 208%
[2]; Homo sapiens, Chondrocyte, foetal calf serum, Table 14, 0-4 days, 10 μg/ml, control = 100%, read-out: PG in the culture medium, % of control
  activity at 10 µg/mL: 118%
[2]; Homo sapiens, Chondrocyte, foetal calf serum, Table 14, 0-4 days, 100 μg/ml, control = 100%, read-out: PG in the culture medium, % of control
  activity at 100 µg/mL: 147%
[2]; Homo sapiens, Chondrocyte, foetal calf serum, Table 14, 4-8 days, 10 μg/ml, control = 100%, read-out: PG in the culture medium, % of control
  activity at 10 µg/mL: 119%
[2]; Homo sapiens, Chondrocyte, foetal calf serum, Table 14, 4-8 days, 100 μg/ml, control = 100%, read-out: PG in the culture medium, % of control
  activity at 100 µg/mL: 135%
[2]; Homo sapiens, Chondrocyte, foetal calf serum, Table 15, 0-4 days, 10 μg/ml, control = 100%, read-out: PG in the culture medium, % of control
  activity at 10 µg/mL: 131%
[2]; Homo sapiens, Chondrocyte, foetal calf serum, Table 15, 0-4 days, 100 μg/ml, control = 100%, read-out: PG in the culture medium, % of control
  activity at 100 µg/mL: 166%
[2]; Homo sapiens, Chondrocyte, foetal calf serum, Table 15, 4-8 days, 10 μg/ml, control = 100%, read-out: PG in the culture medium, % of control
  activity at 10 µg/mL: 123%
[2]; Homo sapiens, Chondrocyte, foetal calf serum, Table 15, 4-8 days, 100 μg/ml, control = 100%, read-out: PG in the culture medium, % of control
  activity at 100 µg/mL: 138%
[2]; Homo sapiens, Chondrocyte, foetal calf serum, Table 16, 0-8 days, 10 μg/ml, control = 100%, read-out: PG in the clusters over 8 days, % of control
  activity at 10 µg/mL: 128%
[2]; Homo sapiens, Chondrocyte, foetal calf serum, Table 16, 0-8 days, 100 μg/ml, control = 100%, read-out: PG in the clusters over 8 days, % of control
  activity at 100 µg/mL: 158%
[2]; Homo sapiens, Chondrocyte, foetal calf serum, Table 17, 0-8 days, 10 μg/ml, control = 100%, read-out: PG in the clusters over 8 days, % of control
  activity at 10 µg/mL: 120%
[2]; Homo sapiens, Chondrocyte, foetal calf serum, Table 17, 0-8 days, 100 μg/ml, control = 100%, read-out: PG in the clusters over 8 days, % of control
  activity at 100 µg/mL: 144%
[2]; foetal calf serum, 10 and 100 μg/ml
  PGs in the clusters, effect in words: significantly increased
[2]; foetal calf serum, Table 14, 0-4 days, 10 μg/ml
  PG in the culture medium: 7.7 ± 0.49 μg/μg DNA - 96 H
[2]; foetal calf serum, Table 14, 0-4 days, 100 μg/ml
  PG in the culture medium: 9.5 ± 1.34 μg/μg DNA - 96 H
[2]; foetal calf serum, Table 14, 4-8 days, 10 μg/ml
  PG in the culture medium: 2.37 ± 0.17 μg/μg DNA - 96 H
[2]; foetal calf serum, Table 14, 4-8 days, 100 μg/ml
  PG in the culture medium: 2.69 ± 0.15 μg/μg DNA - 96 H
[2]; foetal calf serum, Table 15, 0-4 days, 10 μg/ml
  PG in the culture medium: 6.9 ± 0.99 μg/μg DNA - 96 H
[2]; foetal calf serum, Table 15, 0-4 days, 100 μg/ml
  PG in the culture medium: 8.8 ± 1.49 μg/μg DNA - 96 H
[2]; foetal calf serum, Table 15, 4-8 days, 10 μg/ml
  PG in the culture medium: 2.1 ± 0.21 μg/μg DNA - 96 H
[2]; foetal calf serum, Table 15, 4-8 days, 100 μg/ml
  PG in the culture medium: 2.4 ± 0.09 μg/μg DNA - 96 H
[2]; foetal calf serum, Table 16, 0-8 days, 10 μg/ml
  PG in the clusters over 8 days: 1004 ± 56 ng/μg DNA
[2]; foetal calf serum, Table 16, 0-8 days, 100 μg/ml
  PG in the clusters over 8 days: 1242 ± 208 ng/μg DNA
[2]; foetal calf serum, Table 17, 0-8 days, 10 μg/ml
  PG in the clusters over 8 days: 688.8 ± 40.65 ng/μg DNA
[2]; foetal calf serum, Table 17, 0-8 days, 100 μg/ml
  PG in the clusters over 8 days: 829.4 ± 9.37 ng/μg DNA
